From ChEMBL document CHEMBL3865783, “Synthesis and antimicrobial activity against Pseudomonas aeruginosa of macrocyclic β-hairpin peptidomimetic antibiotics containing N-methylated amino acids” (Bioorg Med Chem, 2016)

Legend:
Pseudomonas aeruginosa = assay: Inhibition of LptD in Pseudomonas aeruginosa ATCC 27853 assessed as microbial growth inhibition by microbroth dilution method
[1] = molecular target: T1, LPS-assembly protein LptD (Pseudomonas aeruginosa (strain ATCC 15692 / DSM 22644 / CIP 104116 /JCM 14847 / LMG 12228 / 1C / PRS 101 / PAO1)) (UniProt Q9I5U2); assay: Inhibition of LptD in Pseudomonas aeruginosa PAO1 assessed as microbial growth inhibition by microbroth dilution method
T1 sequence (whole entry): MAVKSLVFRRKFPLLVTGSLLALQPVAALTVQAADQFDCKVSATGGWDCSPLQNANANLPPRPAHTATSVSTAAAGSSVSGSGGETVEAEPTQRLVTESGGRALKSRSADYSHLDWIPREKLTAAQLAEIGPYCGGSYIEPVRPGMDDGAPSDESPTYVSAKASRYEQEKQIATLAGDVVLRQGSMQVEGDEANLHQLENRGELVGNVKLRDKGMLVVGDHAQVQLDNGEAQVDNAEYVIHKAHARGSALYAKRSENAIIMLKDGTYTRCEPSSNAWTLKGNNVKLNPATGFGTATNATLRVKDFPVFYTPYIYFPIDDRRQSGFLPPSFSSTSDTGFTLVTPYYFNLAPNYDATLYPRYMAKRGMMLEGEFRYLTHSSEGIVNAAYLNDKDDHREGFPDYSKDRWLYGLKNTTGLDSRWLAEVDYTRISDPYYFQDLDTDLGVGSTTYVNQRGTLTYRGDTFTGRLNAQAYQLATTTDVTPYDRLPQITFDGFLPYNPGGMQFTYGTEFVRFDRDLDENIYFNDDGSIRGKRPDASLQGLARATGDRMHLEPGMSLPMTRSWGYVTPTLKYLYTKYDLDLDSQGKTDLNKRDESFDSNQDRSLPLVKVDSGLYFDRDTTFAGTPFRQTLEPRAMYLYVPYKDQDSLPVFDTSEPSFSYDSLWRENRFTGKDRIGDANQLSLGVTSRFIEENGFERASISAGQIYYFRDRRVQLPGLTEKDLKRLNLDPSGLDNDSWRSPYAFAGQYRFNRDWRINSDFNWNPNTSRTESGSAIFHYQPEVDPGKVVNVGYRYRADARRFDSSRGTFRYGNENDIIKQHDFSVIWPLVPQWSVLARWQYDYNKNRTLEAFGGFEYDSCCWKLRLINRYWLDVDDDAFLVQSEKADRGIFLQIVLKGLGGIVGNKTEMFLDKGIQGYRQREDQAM

SMILES	MIC (Pseudomonas aeruginosa) [mg/L]	MIC [1] [mg/L]
CC(C)C[C@@H]1NC(=O)[C@H](Cc2c[nH]c3ccccc23)NC(=O)[C@H]([C@@H](C)O)NC(=O)[C@@H]2CCCN2C(=O)[C@H]2CCCN2C(=O)[C@H](CCCCN)NC(=O)[C@H](C)NC(=O)[C@H](CCN)NC(=O)[C@H](CCCN)NC(=O)[C@H](Cc2c[nH]c3ccccc23)NC(=O)[C@H](CCCNC(=N)N)NC(=O)[C@@H](CCCCN)N(C)C(=O)[C@H](CCCN)NC(=O)[C@H](CCN)NC1=O	0.012	0.025
CC(C)C[C@@H]1NC(=O)[C@H](Cc2c[nH]c3ccccc23)NC(=O)[C@H]([C@@H](C)O)NC(=O)[C@@H]2CCCN2C(=O)[C@H]2CCCN2C(=O)[C@H](CCCCN)NC(=O)[C@H](C)NC(=O)[C@H](CCN)NC(=O)[C@H](CCCN)N(C)C(=O)[C@H](Cc2c[nH]c3ccccc23)NC(=O)[C@H](CCCNC(=N)N)NC(=O)[C@@H](CCCCN)NC(=O)[C@H](CCCN)NC(=O)[C@H](CCN)NC1=O	12	16
CC(C)C[C@@H]1NC(=O)[C@H](Cc2c[nH]c3ccccc23)NC(=O)[C@H]([C@@H](C)O)NC(=O)[C@@H]2CCCN2C(=O)[C@H]2CCCN2C(=O)[C@H](CCCCN)NC(=O)[C@H](C)NC(=O)[C@H](CCN)NC(=O)[C@H](CCCN)NC(=O)[C@H](Cc2c[nH]c3ccccc23)NC(=O)[C@H](CCCNC(=N)N)N(C)C(=O)[C@@H](CCCCN)NC(=O)[C@H](CCCN)NC(=O)[C@H](CCN)NC1=O	0.38	0.75
CC(C)C[C@@H]1NC(=O)[C@H](Cc2c[nH]c3ccccc23)NC(=O)[C@H]([C@@H](C)O)NC(=O)[C@@H]2CCCN2C(=O)[C@H]2CCCN2C(=O)[C@H](CCCCN)N(C)C(=O)[C@H](C)NC(=O)[C@H](CCN)NC(=O)[C@H](CCCN)NC(=O)[C@H](Cc2c[nH]c3ccccc23)NC(=O)[C@H](CCCNC(=N)N)NC(=O)[C@@H](CCCCN)NC(=O)[C@H](CCCN)NC(=O)[C@H](CCN)NC1=O	> 64	> 64
CC(C)C[C@@H]1NC(=O)[C@H](Cc2c[nH]c3ccccc23)NC(=O)[C@H]([C@@H](C)O)N(C)C(=O)[C@@H]2CCCN2C(=O)[C@H]2CCCN2C(=O)[C@H](CCCCN)NC(=O)[C@H](C)NC(=O)[C@H](CCN)NC(=O)[C@H](CCCN)NC(=O)[C@H](Cc2c[nH]c3ccccc23)NC(=O)[C@H](CCCNC(=N)N)NC(=O)[C@@H](CCCCN)NC(=O)[C@H](CCCN)NC(=O)[C@H](CCN)NC1=O	0.19	0.38
CC(C)C[C@@H]1NC(=O)[C@H](Cc2c[nH]c3ccccc23)N(C)C(=O)[C@H]([C@@H](C)O)NC(=O)[C@@H]2CCCN2C(=O)[C@H]2CCCN2C(=O)[C@H](CCCCN)NC(=O)[C@H](C)NC(=O)[C@H](CCN)NC(=O)[C@H](CCCN)NC(=O)[C@H](Cc2c[nH]c3ccccc23)NC(=O)[C@H](CCCNC(=N)N)NC(=O)[C@@H](CCCCN)NC(=O)[C@H](CCCN)NC(=O)[C@H](CCN)NC1=O	> 64	> 64
CC(C)C[C@@H]1NC(=O)[C@H](Cc2c[nH]c3ccccc23)NC(=O)[C@H]([C@@H](C)O)NC(=O)[C@@H]2CCCN2C(=O)[C@H]2CCCN2C(=O)[C@H](CCCCN)NC(=O)[C@H](C)NC(=O)[C@H](CCN)NC(=O)[C@H](CCCN)NC(=O)[C@H](Cc2c[nH]c3ccccc23)NC(=O)[C@H](CCCNC(=N)N)NC(=O)[C@@H](CCCCN)NC(=O)[C@H](CCCN)NC(=O)[C@H](CCN)N(C)C1=O	0.005	0.009
CC(C)C[C@@H]1NC(=O)[C@H](Cc2c[nH]c3ccccc23)NC(=O)[C@H]([C@@H](C)O)NC(=O)[C@@H]2CCCN2C(=O)[C@H]2CCCN2C(=O)[C@H](CCCCN)NC(=O)[C@H](C)NC(=O)[C@H](CCN)N(C)C(=O)[C@H](CCCN)NC(=O)[C@H](Cc2c[nH]c3ccccc23)NC(=O)[C@H](CCCNC(=N)N)NC(=O)[C@@H](CCCCN)NC(=O)[C@H](CCCN)NC(=O)[C@H](CCN)NC1=O	1	12
CC(C)C[C@@H]1NC(=O)[C@H](Cc2c[nH]c3ccccc23)NC(=O)[C@H]([C@@H](C)O)NC(=O)[C@@H]2CCCN2C(=O)[C@H]2CCCN2C(=O)[C@H](CCCCN)NC(=O)[C@H](C)NC(=O)[C@H](CCN)NC(=O)[C@H](CCCN)NC(=O)[C@H](Cc2c[nH]c3ccccc23)NC(=O)[C@H](CCCNC(=N)N)NC(=O)[C@@H](CCCCN)NC(=O)[C@H](CCCN)N(C)C(=O)[C@H](CCN)NC1=O	0.009	0.008
CC(C)C[C@@H]1NC(=O)[C@H](Cc2c[nH]c3ccccc23)NC(=O)[C@H]([C@@H](C)O)NC(=O)[C@@H]2CCCN2C(=O)[C@H]2CCCN2C(=O)[C@H](CCCCN)NC(=O)[C@H](C)N(C)C(=O)[C@H](CCN)NC(=O)[C@H](CCCN)NC(=O)[C@H](Cc2c[nH]c3ccccc23)NC(=O)[C@H](CCCNC(=N)N)NC(=O)[C@@H](CCCCN)NC(=O)[C@H](CCCN)NC(=O)[C@H](CCN)NC1=O	> 64	> 64
CC(C)C[C@@H]1NC(=O)[C@H](Cc2c[nH]c3ccccc23)NC(=O)[C@H]([C@@H](C)O)NC(=O)[C@@H]2CCCN2C(=O)[C@H]2CCCN2C(=O)[C@H](CCCCN)NC(=O)[C@H](C)NC(=O)[C@H](CCN)NC(=O)[C@H](CCCN)NC(=O)[C@H](Cc2c[nH]c3ccccc23)NC(=O)[C@H](CCCNC(=N)N)NC(=O)[C@@H](CCCCN)NC(=O)[C@H](CCCN)NC(=O)[C@H](CCN)NC1=O	0.008	0.015
CC(C)C[C@H]1C(=O)N[C@@H](CCN)C(=O)N[C@@H](CCCN)C(=O)N[C@H](CCCCN)C(=O)N[C@@H](CCCNC(=N)N)C(=O)N[C@@H](Cc2c[nH]c3ccccc23)C(=O)N[C@@H](CCCN)C(=O)N[C@@H](CCN)C(=O)N[C@@H](C)C(=O)N[C@@H](CCCCN)C(=O)N2CCC[C@@H]2C(=O)N2CCC[C@H]2C(=O)N[C@@H]([C@@H](C)O)C(=O)N[C@@H](Cc2c[nH]c3ccccc23)C(=O)N1C	> 64	> 64
CC(C)C[C@@H]1NC(=O)[C@H](Cc2c[nH]c3ccccc23)NC(=O)[C@H]([C@@H](C)O)NC(=O)[C@@H]2CCCN2C(=O)[C@H]2CCCN2C(=O)[C@H](CCCCN)NC(=O)[C@H](C)NC(=O)[C@H](CCN)NC(=O)[C@H](CCCN)NC(=O)[C@H](Cc2c[nH]c3ccccc23)N(C)C(=O)[C@H](CCCNC(=N)N)NC(=O)[C@@H](CCCCN)NC(=O)[C@H](CCCN)NC(=O)[C@H](CCN)NC1=O	0.023	0.13
